The record followed here is patent US9169241B2, “Quinolinyloxyphenylsulfonamides” (Max-Planck-Gesellschaft Zur Forderung der Wissenschaften …, priority 2009, dated 2015).

Holding throughout (type): cell-based
The test system of test [1] is C8161. Description: Cell vitality assay (ATP assay, CellTiter-Glo). The note with it: Homo sapiens; C8161, 72 h; Table IIa; read-out: IC50 ATP-Assay after 72 h C8161. In short, it runs like this: (§1)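 Steps: seed 1000 cells per well; add compound (0.195–12.5 μM, 7 points) or DMSO; incubate 72 h; equilibrate to room temperature ~30 min; add reagent, shake 2 min, stand 10 min; read luminescence. IC50 relative to DMSO-control ATP.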
(In general: ATP-based viability assays read luminescence as a measure of living cells.)

Another test relates to MDA-MB231. Description: Cell vitality assay (ATP assay, CellTiter-Glo). The note with it: Homo sapiens, MDA-MB-231; MDA-MB231, 72 h; Table IIa; read-out: IC50 ATP-Assay after 72 h MDA-MB231. In short, it runs like this: as §1
For test [2], the system named is SF763. Description: Cell vitality assay (ATP assay, CellTiter-Glo). The note with it: SF763, 72 h; Table IIa; read-out: IC50 ATP-Assay after 72 h SF763. In short, it runs like this: as §1
Test [3] relates to U138. Description: Cell vitality assay (ATP assay, CellTiter-Glo). The settings on record: U138, 72 h; Table IIa; read-out: IC50 ATP-Assay after 72 h U138. In short, it runs like this:
as §1

For test [4], the system named is C8161. Description: Apoptosis assay (Cellomics, nucleus condensation). The settings on record: Homo sapiens, Table III, read-out: Apoptosis induction in C8161. In short, it runs like this: (§2)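 Cells at 5000 per well were stained live with Hoechst 33342 and imaged on an automated fluorescence microscope after 24 h and 48 h compound exposure (12.5 μM down to 0.39 μM, twofold steps; DMSO control). Per-nucleus intensity variation quantified nuclear condensation; cell counts were also recorded.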

The subject of the next test is Hs578T. Description: Apoptosis assay (Cellomics, nucleus condensation). The settings on record: Homo sapiens, Hs-578T, Table III, read-out: Apoptosis induction in Hs578T. The gist of the method:
as §2

A further test concerns SF126. Description: Apoptosis assay (Cellomics, nucleus condensation). The note with it: Homo sapiens, SF-126, Table III, read-out: Apoptosis induction in SF126. The gist of the method: as §2
Test [5] deals with SF763. Description: Apoptosis assay (Cellomics, nucleus condensation). The note with it: Table III, read-out: Apoptosis induction in SF763. The gist of the method:
as §2

Another test relates to U118. Description: Apoptosis assay (Cellomics, nucleus condensation). The settings on record: Table III, read-out: Apoptosis induction in U118. The gist of the method: as §2
The test system of test [6] is U138. Description: Apoptosis assay (Cellomics, nucleus condensation). The note with it: Table III, read-out: Apoptosis induction in U138. In short, it runs like this: as §2
A further test has as its system cells. Description: Boyden chamber migration assay (Table VI). The settings on record: Homo sapiens, Hs-578T, 16 h, Hs578T cells; 16 h migration. The gist of the method:
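20000 cells seeded in the upper compartment in 0% FCS plus 0.1% BSA and left 16 h to migrate through […] membrane toward 10% FCS medium below. Non-migrated cells swabbed off; cells on the filter underside fixed and counted.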

Where only a bound is given, the exact number is not on record here.

As for `COc1cc2c(Oc3ccc(NS(=O)(=O)c4cccc(Oc5ccccc5)c4)cc3F)ccnc2cc1OCCCN1CCN(C)CC1` [Example 14, N-(3-Fluoro-4-{6-methoxy-7-[3-(4-methyl-piperazin-1-yl)-propoxy]-quinolin-4-yloxy}-phenyl)-3-phenoxy-benzenesulfonamide], the IC50 was not above 12.5 µM in the test on C8161 [1]; not above 12.5 µM with MDA-MB231; not above 12.5 µM in the test on SF763 [2]; 12.5 to 50 µM with U138 [3]; not above 12.5 µM in the test on C8161 [4]; not above 12.5 µM with Hs578T. Moreover, the IC50 in the test on SF126 is not above 12.5 µM; in the test with SF763 [5], not above 12.5 µM; with U118, 12.5 to 50 µM; in the test with U138 [6] it was not above 12.5 µM; in the test on cells, not above 5 µM.
`COc1cc2c(Oc3ccc(NS(=O)(=O)c4ccccc4OC(F)(F)F)cc3F)ccnc2cc1OCCCN1CCN(C)CC1` [Example 25, N-(3-Fluoro-4-{6-methoxy-7-[3-(4-methyl-piperazin-1-yl)-propoxy]-quinolin-4-yloxy}-phenyl)-2-trifluoromethoxy-benzenesulfonamide]: the IC50 with C8161 [1], in the test with MDA-MB231, in the test with SF763 [2], in the test with U138 [3], in the test with C8161 [4] and with Hs578T was not above 12.5 µM each time. For the same compound, the IC50 in the test with SF126 is not above 12.5 µM; in the test with SF763 [5], not above 12.5 µM; in the test with U118, not above 12.5 µM; in the test on U138 [6] it was not above 12.5 µM; in the test on cells it was not above 5 µM.
As for `COc1cc2c(Oc3ccc(NS(=O)(=O)c4c(Cl)cccc4Cl)cc3F)ccnc2cc1OCCCN1CCN(C)CC1` [Example 32, 2,6-Dichloro-N-(3-fluoro-4-{6-methoxy-7-[3-(4-methyl-piperazin-1-yl)-propoxy]-quinolin-4-yloxy}-phenyl)-benzenesulfonamide], the IC50 in the test with C8161 [1], in the test with MDA-MB231, with SF763 [2], in the test on U138 [3], with C8161 [4] and in the test on Hs578T was not above 12.5 µM each time. Also, the IC50 in the test on SF126 is not above 12.5 µM; in the test with SF763 [5], not above 12.5 µM; with U118 it was not above 12.5 µM; with U138 [6], not above 12.5 µM; with cells it was not above 5 µM.
As for `COc1cc2c(Oc3ccc(NS(=O)(=O)c4ccccc4OC)cc3F)ccnc2cc1OCCCN1CCN(C)CC1` [Example 33, N-(3-Fluoro-4-{6-methoxy-7-[3-(4-methyl-piperazin-1-yl)-propoxy]-quinolin-4-yloxy}-phenyl)-2-methoxy-benzenesulfonamide], the IC50 in the test on C8161 [1] is not above 12.5 µM; in the test on MDA-MB231, not above 12.5 µM; in the test with SF763 [2], not above 12.5 µM; in the test on U138 [3] it was not above 12.5 µM; in the test on C8161 [4], not above 12.5 µM; in the test with Hs578T it was 12.5 to 50 µM. In addition, the IC50 is not above 12.5 µM with SF126; not above 12.5 µM in the test on SF763 [5]; 12.5 to 50 µM in the test with U118; not above 12.5 µM with U138 [6]; not above 5 µM with cells.
Regarding `COc1cc2c(Oc3ccc(NS(=O)(=O)c4cccc(C#N)c4)cc3F)ccnc2cc1OCCCN1CCCC(C)C1` (centres unmarked) [Example 41, 3-Cyano-N-(3-fluoro-4-{6-methoxy-7-[3-(3-methyl-piperidin-1-yl)-propoxy]-quinolin-4-yloxy}-phenyl)-benzenesulfonamide], the IC50 with C8161 [1], in the test with MDA-MB231, with SF763 [2], with U138 [3], with C8161 [4] and in the test on Hs578T was not above 12.5 µM in each case. Moreover, the IC50 was not above 12.5 µM in the test on SF126; not above 12.5 µM in the test with SF763 [5]; not above 12.5 µM with U118; not above 12.5 µM in the test with U138 [6]; not above 5 µM in the test on cells.
Consider `COc1cc2c(Oc3ccc(NS(=O)(=O)c4cc(C)ccc4F)cc3F)ccnc2cc1OCCCN1CCCC(C)C1` (centres unmarked) [Example 55], for which the IC50 was not above 12.5 µM with C8161 [1]; not above 12.5 µM with MDA-MB231; 12.5 to 50 µM in the test with SF763 [2]; 12.5 to 50 µM with U138 [3]; not above 12.5 µM in the test on C8161 [4]; not above 12.5 µM in the test with Hs578T. Also, the IC50 with SF126 was not above 12.5 µM; in the test on SF763 [5] it was not above 12.5 µM; with U118 it was 12.5 to 50 µM; in the test on U138 [6] it was not above 12.5 µM; in the test with cells, not above 5 µM.
As for `COc1cc2c(Oc3ccc(NS(=O)(=O)c4ccc(C)c(F)c4)cc3F)ccnc2cc1OCCCN1CCCC(C)C1` (centres unmarked) [Example 56, 3-Fluoro-N-(3-fluoro-4-{6-methoxy-7-[3-(3-methyl-piperidin-1-yl)-propoxy]-quinolin-4-yloxy}-phenyl)-4-methyl-benzenesulfonamide], the IC50 in the test with C8161 [1] is not above 12.5 µM; in the test with MDA-MB231 it was 12.5 to 50 µM; in the test with SF763 [2], not above 12.5 µM; with U138 [3], not above 12.5 µM; in the test on C8161 [4], not above 12.5 µM; with Hs578T, not above 12.5 µM. In addition, the IC50 with SF126 is not above 12.5 µM; in the test on SF763 [5], not above 12.5 µM; with U118 it was not above 12.5 µM; with U138 [6] it was not above 12.5 µM; in the test with cells it was not above 5 µM.
Consider `COc1cc2c(Oc3ccc(NS(=O)(=O)c4cccc(Oc5ccccc5)c4)cc3F)ccnc2cc1OCCCN1CCCC(C)C1` (centres unmarked) [Example 59, N-(3-Fluoro-4-{6-methoxy-7-[3-(3-methyl-piperidin-1-yl)-propoxy]-quinolin-4-yloxy}-phenyl)-3-phenoxy-benzenesulfonamide], for which the IC50 in the test with C8161 [1], with MDA-MB231, with SF763 [2], in the test on U138 [3], in the test on C8161 [4] and in the test on Hs578T was not above 12.5 µM in each case. The IC50 with SF126 was not above 12.5 µM; in the test on SF763 [5] it was not above 12.5 µM; in the test on U118, not above 12.5 µM; with U138 [6] it was not above 12.5 µM; in the test with cells it was not above 5 µM.
As to `COc1cc2c(Oc3ccc(NS(=O)(=O)c4ccc(Cl)s4)cc3F)ccnc2cc1OCCCN1CCCC(C)C1` (centres unmarked) [Example 63, 5-Chloro-thiophene-2-sulfonic acid (3-fluoro-4-{6-methoxy-7-[3-(3-methyl-piperidin-1-yl)-propoxy]-quinolin-4-yloxy}-phenyl)-amide], the IC50 in the test with C8161 [1] is not above 12.5 µM; in the test with MDA-MB231, not above 12.5 µM; with SF763 [2], not above 12.5 µM; in the test with U138 [3] it was 12.5 to 50 µM; with C8161 [4], not above 12.5 µM; in the test with Hs578T it was not above 12.5 µM. In addition, the IC50 in the test with SF126 is not above 12.5 µM; with SF763 [5], not above 12.5 µM; with U118, not above 12.5 µM; in the test with U138 [6] it was not above 12.5 µM; in the test with cells it was not above 5 µM.
On to `COc1cc2c(Oc3ccc(NS(=O)(=O)c4cccc(C)c4)cc3F)ccnc2cc1OCCCN1CCCC(C)C1` (centres unmarked) [Example 70, N-(3-Fluoro-4-{6-methoxy-7-[3-(3-methyl-piperidin-1-yl)-propoxy]-quinolin-4-yloxy}-phenyl)-3-methyl-benzenesulfonamide], for which the IC50 is 12.5 to 50 µM in the test on C8161 [1]; 12.5 to 50 µM with MDA-MB231; 12.5 to 50 µM in the test with SF763 [2]; not above 12.5 µM in the test with U138 [3]; not above 12.5 µM in the test on C8161 [4]; not above 12.5 µM with Hs578T. In addition, the IC50 in the test with SF126 is not above 12.5 µM; in the test with SF763 [5], not above 12.5 µM; in the test with U118 it was not above 12.5 µM; with U138 [6], not above 12.5 µM; in the test with cells it was not above 5 µM.
